The values below come from patent publication US12139498B1, “Positive allosteric modulators of the muscarinic acetylcholine receptor M4” (Vanderbilt University, priority 2023, dated 2024).

The experiment addresses T1, Human M4 (Homo sapiens, UniProt P08173).
T1 sequence (P08173 1-479): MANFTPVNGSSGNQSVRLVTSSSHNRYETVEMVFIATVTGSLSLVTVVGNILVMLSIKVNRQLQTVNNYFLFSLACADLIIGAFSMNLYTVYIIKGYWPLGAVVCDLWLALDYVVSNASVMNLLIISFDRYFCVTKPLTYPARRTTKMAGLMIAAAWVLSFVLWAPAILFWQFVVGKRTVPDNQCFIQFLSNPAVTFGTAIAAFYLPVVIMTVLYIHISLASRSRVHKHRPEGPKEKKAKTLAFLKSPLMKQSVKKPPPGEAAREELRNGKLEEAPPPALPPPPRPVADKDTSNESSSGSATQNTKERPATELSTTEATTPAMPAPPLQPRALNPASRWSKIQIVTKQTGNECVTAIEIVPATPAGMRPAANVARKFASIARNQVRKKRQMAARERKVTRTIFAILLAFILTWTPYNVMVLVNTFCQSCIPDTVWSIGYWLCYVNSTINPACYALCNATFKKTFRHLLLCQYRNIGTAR
As to the kind of experiment: M4 cell-based functional assay (calcium mobilization). Also on record: expressed in transfected cells. Particulars: for Emax at 30 µM: % ACh maximum at 30 μM; for pEC50: CHO-K1 hM4-Gqi5 cells, calcium flux, increase in EC20 acetylcholine response. As for the experimental part: Human (h) and rat (r) M4 CDNAs, along with the chimeric G protein Gqi5, were transfected into Chinese hamster ovary (CHO-K1) cells purchased from the American Type Culture Collection using Lipofectamine2000. The transfected cells were subjected to selection antibiotic treatment to generate stable cell lines; G418 sulfate (1 mg/ml) for selecting M4 expressing cells and Hygromycin B (500 μg/mL) for selecting Gqi5 expressing cells. The resulting polyclones were further screened to obtain monoclones of hM4-Gqi5 and rM4-Gqi5 for compound screening assay. Stable monoclone cells were maintained in Ham's F-12 medium containing 10% heat-inactivated fetal bovine serum (FBS), 1× Antibiotic/Antimycotic, 20 mM HEPES, 500 μg/mL G418 sulfate, and 200 μg/mL Hygromycin B in 37° C. humidified incubators in the presence of 5% CO2.
The high throughput assay was employed to measure receptor-induced mobilization of intracellular calcium to determine compound activity. Test compound was added to cells expressing the muscarinic receptors that were loaded with calcium sensitive fluorescent dye. After a ˜2.5 minute incubation period, a submaximal (EC20) concentration of acetylcholine was added, and the response measured. This kinetic assay allows for simultaneous screening and potency determination of multiple pharmacological modes of action including agonist and potentiator activity. CHO-K1 cells stably expressing muscarinic receptors were plated in growth medium lacking G418 and hygromycin at 15,000 cells/20 μL/well in Greiner 384-well black-walled, tissue culture (TC)-treated, clear-bottom plates (Greiner Bio-One). Cells were incubated overnight at 37° C. and 5% CO2. The next day, calcium assay buffer (Hank's balanced salt solution (HBSS), 20 mM HEPES, 2.5 mM Probenecid, 4.16 mM sodium bicarbonate (Sigma-Aldrich, St. Louis, MO)) was prepared to dilute compounds, agonists, and Fluo-4-acetomethoxyester (Fluo-4-AM), fluorescent calcium indicator dye. Compounds were serially diluted 1:3 into 10 point concentration response curves in DMSO using the Bravo Liquid Handler (Agilent, Santa Clara, CA), transferred to a 384 well daughter plates using an Echo acoustic liquid handler (Beckman Coulter, Indianapolis, Indiana), and diluted in assay Buffer to a 2× final concentration. The agonist plates were prepared using acetylcholine (ACh, Sigma-Aldrich, St. Louis, MO) concentrations for the EC20 and ECMAX responses by diluting in assay buffer to a 5× final concentration. The 2× dye solution (2.3 μM) was prepared by mixing a 2.3 mM Fluo-4-AM stock in DMSO with 10% (w/v) pluronic acid F-127 in a 1:1 ratio in assay buffer. Using a microplate washer (BioTek, Winooski, VT), cells were washed with assay buffer for 3 times to remove medium. After the final wash, 20 μL of assay buffer remained in the cell plates. Immediately, 20 μL of the 2× dye solution (final 1.15 μM) was added to each well of the cell plate using a Multidrop Combi dispenser (Thermo Fisher, Waltham, MA). After cells were incubated with the dye solutions for 45 min at 37° C. in the presence of 5% CO2, the dye solutions were removed and replaced with assay buffer using a microplate washer, leaving 20 μL of assay buffer in the cell plate.
The prepared compound, agonist, and cell plates were placed inside the Functional Drug Screening System uCell (FDSS uCell, Hamamatsu, Japan) to measure the calcium flux.
The triple add protocol was used to measure Ca kinetics; Compound, ACh for EC2O, and ACh for EC80 adds in an order. Briefly, after establishment of a fluorescence baseline for 2 seconds (excitation, 480 nm; emission, 530 nm), first add occurred by adding 20 μL of test compound to the cells, and the response was measured for 140 seconds. This is followed by second add; 10 μL (5×) of an EC20 concentration of ACh agonist was added to the cells, and the response of the cells was measured for 125 seconds. […]
(In general: Calcium flux is commonly read through the fluorescence of an indicator in the cells.)

pEC50: −log10 of the molar value.

As for `Cc1cc2nccnc2nc1N1CCc2nc(-c3ccnn3C)sc2C1` [Compound 59, 2-(1-methyl-1H-pyrazol-5-yl)-5-(7-methylpyrido[2,3-b]pyrazin-6-yl)-4,5,6,7-tetrahydrothiazolo[5,4-c]pyridine], the Emax (usually the greatest response seen or fitted, relative to the assay's reference) at 30 µM is 54% and the pEC50 (in general, the negative decadic logarithm of the EC50, by convention in mol/L) is 5.56.
For the compound `Cc1c(N2CCc3nc(C4CC4)sc3C2)nc2nn(C)c(=O)n2c1C` [Compound 77, 7-(2-cyclopropyl-6,7-dihydrothiazolo[5,4-c]pyridin-5(4H)-yl)-2,5,6-trimethyl-[1,2,4]triazolo[4,3-a]pyrimidin-3(2H)-one], the Emax at 30 µM is 121% and the pEC50 was 8.05.
For the compound `Cc1cc2nc(C(=O)NC3CC(CC(F)(F)F)C3)cc(=O)n2nc1N1CCc2nc(Br)sc2C1` (stereo not drawn) [Compound 48, 7-(2-bromo-6,7-dihydrothiazolo[5,4-c]pyridin-5(4H)-yl)-8-methyl-4-oxo-N-(3-(2,2,2-trifluoroethyl)cyclobutyl)-4H-pyrimido[1,2-b]pyridazine-2-carboxamide], the maximal response (Emax) at 30 µM worked out at 87% and the pEC50 was 5.66.
For the compound `Cc1cc2nc(C(=O)NC3(C#N)CC3)cc(=O)n2nc1N1CCc2nc(Br)sc2C1` [Compound 46, 7-(2-bromo-6,7-dihydrothiazolo[5,4-c]pyridin-5(4H)-yl)-N-(1-cyanocyclopropyl)-8-methyl-4-oxo-4H-pyrimido[1,2-b]pyridazine-2-carboxamide], the Emax at 30 µM stood at 91% and the negative-log EC50 (pEC50) was 6.44.
Consider `Cc1cc(C#N)cnc1N1CCc2nc(NCc3cccc(F)c3)sc2C1` [Compound 18, 6-(2-((3-fluorobenzyl)amino)-6,7-dihydrothiazolo[5,4-c]pyridin-5(4H)-yl)-5-methylnicotinonitrile], for which the Emax at 30 µM was 44% and the negative logarithm of the EC50 (pEC50) was 5.39.
The like results for `COc1nc2c(s1)CN(c1nnc(C#N)c(C)c1C)CC2` [Compound 8, 6-(2-methoxy-6,7-dihydrothiazolo[5,4-c]pyridin-5(4H)-yl)-4,5-dimethylpyridazine-3-carbonitrile] were, in that order, 79% and 6.14.
In the case of `Cc1cc2nc(C(F)(F)F)cc(=O)n2nc1N1CCc2nc(Br)sc2C1` [Compound 36, 7-(2-bromo-6,7-dihydrothiazolo[5,4-c]pyridin-5(4H)-yl)-8-methyl-2-(trifluoromethyl)-4H-pyrimido[1,2-b]pyridazin-4-one], the Emax at 30 µM stood at 91% and the negative-log EC50 (pEC50) is 7.43.
As for `Cc1ccc2ncnc(N3CCc4nc(Br)sc4C3)c2c1` [Compound 30, 2-bromo-5-(6-methylquinazolin-4-yl)-4,5,6,7-tetrahydrothiazolo[5,4-c]pyridine], the Emax at 30 µM came out at 91% and the pEC50 is 6.83.
With `Cc1c(N2CCc3nc(C4CC4)sc3C2)nc2nn(CC3CC3(F)F)c(=O)n2c1C` (stereo not drawn) [Compound 74, 7-(2-cyclopropyl-6,7-dihydrothiazolo[5,4-c]pyridin-5(4H)-yl)-2-((2,2-difluorocyclopropyl)methyl)-5,6-dimethyl-[1,2,4]triazolo[4,3-a]pyrimidin-3(2H)-one], the Emax at 30 µM was 94% and the pEC50 is 8.15.
For `Cc1cc(C#N)cnc1N1CCc2nc(Br)sc2C1` [Compound 1, 6-(2-bromo-6,7-dihydrothiazolo[5,4-c]pyridin-5(4H)-yl)-5-methylnicotinonitrile], in that order: 92% and 7.23.
As to `Cc1cc2nccnc2nc1N1CCc2nc(-c3cccs3)sc2C1` [Compound 56, 5-(7-methylpyrido[2,3-b]pyrazin-6-yl)-2-(thiophen-2-yl)-4,5,6,7-tetrahydrothiazolo[5,4-c]pyridine], the maximal response (Emax) at 30 µM was 50% and the negative-log EC50 (pEC50) was 5.62.
For `Cc1c(N2CCc3nc(C4CC4)sc3C2)nc2nn(CC3CC3)c(=O)n2c1C` [Compound 75, 7-(2-cyclopropyl-6,7-dihydrothiazolo[5,4-c]pyridin-5(4H)-yl)-2-(cyclopropylmethyl)-5,6-dimethyl-[1,2,4]triazolo[4,3-a]pyrimidin-3(2H)-one], the Emax at 30 µM was determined as 111% and the pEC50 was 7.82.
For `CCOC(=O)c1nc2c(s1)CN(c1nc3nccnc3cc1C)CC2` [Compound 58, ethyl 5-(7-methylpyrido[2,3-b]pyrazin-6-yl)-4,5,6,7-tetrahydrothiazolo[5,4-c]pyridine-2-carboxylate], the Emax at 30 µM was found to be 86% and the pEC50 is 5.74.
For `Cc1c(N2CCc3nc(C4CC4)sc3C2)nc2n[nH]c(=O)n2c1C` [Compound 72, 7-(2-cyclopropyl-6,7-dihydrothiazolo[5,4-c]pyridin-5(4H)-yl)-5,6-dimethyl-[1,2,4]triazolo[4,3-a]pyrimidin-3(2H)-one], in that order: 91% and 8.30.
Consider `Cc1cc2nccnc2nc1N1CCc2nc(C(F)(F)F)sc2C1` [Compound 62, 5-(7-methylpyrido[2,3-b]pyrazin-6-yl)-2-(trifluoromethyl)-4,5,6,7-tetrahydrothiazolo[5,4-c]pyridine], for which the Emax at 30 µM was found to be 72% and the pEC50 is 7.03.
The like results for `Cc1noc2ncnc(N3CCc4nc(Br)sc4C3)c12` [Compound 25, 4-(2-bromo-6,7-dihydrothiazolo[5,4-c]pyridin-5(4H)-yl)-3-methylisoxazolo[5,4-d]pyrimidine] were, in that order, 113% and 5.89.
As to `Cc1cc(C#N)cnc1N1CCc2ncsc2C1` [Compound 17, 6-(6,7-dihydrothiazolo[5,4-c]pyridin-5(4H)-yl)-5-methylnicotinonitrile], the maximum response (Emax) at 30 µM was 92% and the pEC50 is 5.50.
For `Cc1nc(Cl)c(C)c(N2CCc3nc(Nc4ccccc4F)sc3C2)n1` [Compound 14, 5-(6-chloro-2,5-dimethylpyrimidin-4-yl)-N-(2-fluorophenyl)-4,5,6,7-tetrahydrothiazolo[5,4-c]pyridin-2-amine], in that order: 51% and 5.28.
Take `Cc1cc2nc(C)c(C)c(=O)n2nc1N1CCc2nc(Br)sc2C1` [Compound 38, 7-(2-bromo-6,7-dihydrothiazolo[5,4-c]pyridin-5(4H)-yl)-2,3,8-trimethyl-4H-pyrimido[1,2-b]pyridazin-4-one]: the Emax at 30 µM was determined as 80% and the pEC50 is 5.93.
With `Brc1nc2c(s1)CN(c1ncnc3ccsc13)CC2` [Compound 26, 2-bromo-5-(thieno[3,2-d]pyrimidin-4-yl)-4,5,6,7-tetrahydrothiazolo[5,4-c]pyridine], the Emax at 30 µM is 98% and the negative logarithm of the EC50 (pEC50) was 6.37.
Consider `Cc1c(C#N)nnc(N2CCc3nc(Br)sc3C2)c1C` [Compound 10, 6-(2-bromo-6,7-dihydrothiazolo[5,4-c]pyridin-5(4H)-yl)-4,5-dimethylpyridazine-3-carbonitrile], for which the maximal response (Emax) at 30 µM was 85% and the pEC50 is 6.94.
